Molecular target: T1, Human M4 (Homo sapiens, UniProt P08173)
T1 construct: Human or rat M4 cDNA, along with the chimeric G protein Gqi5, were transfected into Chinese hamster ovary (CHO-K1) cells; expressed in transfected cells; host or cells: CHO-K1 (Chinese hamster ovary, ATCC), stably co-expressing Gqi5
T1 sequence (P08173 1-479): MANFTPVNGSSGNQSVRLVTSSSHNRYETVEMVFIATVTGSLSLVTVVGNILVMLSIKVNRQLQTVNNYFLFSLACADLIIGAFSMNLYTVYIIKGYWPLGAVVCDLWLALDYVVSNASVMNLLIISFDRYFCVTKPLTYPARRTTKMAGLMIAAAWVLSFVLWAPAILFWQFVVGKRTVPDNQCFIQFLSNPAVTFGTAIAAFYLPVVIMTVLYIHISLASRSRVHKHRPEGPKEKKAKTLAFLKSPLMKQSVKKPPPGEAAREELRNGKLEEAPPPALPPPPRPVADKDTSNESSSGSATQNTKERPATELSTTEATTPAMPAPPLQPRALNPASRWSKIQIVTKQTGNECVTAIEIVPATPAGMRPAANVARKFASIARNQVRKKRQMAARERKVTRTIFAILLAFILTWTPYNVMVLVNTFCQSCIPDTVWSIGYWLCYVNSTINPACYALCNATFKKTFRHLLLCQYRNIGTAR
Assay: mAChR M4 cell-based functional assay (calcium flux, decrease of EC80 acetylcholine response)
Conditions: for remaining activity at 30 µM: read-out: Human M4 Emin; for IC50: M4/Gqi5/CHO-K1 cells, decrease of response to EC80 acetylcholine
In short: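 CHO-K1 cells stably co-expressing M4 and chimeric Gqi5, loaded with Fluo-4 AM; calcium flux read on FDSS. Compound added at 2 s, EC20 acetylcholine at 143 s, EC80 acetylcholine at 268 s. IC50 from concentration-dependent decrease of the EC80 response, four-parameter logistic fit; 10-point 1:3 titrations.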

Row | SMILES | remaining activity at 30 µM (% ACh maximum at 30 μM) [%] | IC50 [µM] | Human M4 Emin (% ACh maximum at 30 μM) [%]
1 | Cn1cc2cc(-c3cc(C(F)(F)F)c(N[C@H]4C[C@@H]5CN(C[C@H]6CCOC6)C[C@@H]5C4)nn3)ccc2n1 [Example 33, (3aR,5s,6aS)-N-(6-(2-methyl-2H-indazol-5-yl)-4-(trifluoro-methyl)pyridazin-3-yl)-2-(((R)-tetrahydrofuran-3-yl)methyl)octahydro-cyclopenta[c]pyrrol-5-amine] | 6 | 0.188 | 
2 | Cn1cc2cc(-c3nnc(N[C@H]4C[C@@H]5CN(CC6CCOCC6)C[C@@H]5C4)cc3C(F)(F)F)ccc2n1 [Example 1, (3aR,5s,6aS)—N-(6-(2-Methyl-2H-indazol-5-yl)-5-(trifluoromethyl)pyridazin-3-yl)-2-((tetrahydro-2H-pyran-4-yl)methyl)octahydrocyclopenta[c]pyrrol-5-amine] |  | 0.00563 | 2
3 | Cn1cc2cc(-c3cc(C#N)c(N[C@H]4C[C@@H]5CN(C[C@@H]6CCOC6)C[C@@H]5C4)nn3)ccc2n1 [Example 154, 6-(2-methyl-2H-indazol-5-yl)-3-(((3aR,5s,6aS)-2-(((S)-tetrahydrofuran-3-yl)methyl)octahydro-cyclopenta[c]pyrrol-5-yl)amino)pyridazine-4-carbonitrile] | 15 | 0.0878 | 
4 | Fc1ccc(F)c(-c2cc(C(F)(F)F)c(N[C@H]3C[C@@H]4CN(C[C@@H]5COCCO5)C[C@@H]4C3)nn2)c1 [Example 69, (3aR,5s,6aS)-2-(((R)-1,4-dioxan-2-yl)methyl)-N-(6-(2,5-difluorophenyl)-4-(trifluoromethyl)pyridazin-3-yl)octahydro-cyclopenta[c]pyrrol-5-amine] | 3 | 0.242 | 
5 | CCOc1ccc(-c2cc(C(F)(F)F)c(N[C@H]3C[C@@H]4CN(CC5CCOCC5)C[C@@H]4C3)nn2)c(F)c1F [Example 56, (3aR,5s,6aS)-N-(6-(4-ethoxy-2,3-difluorophenyl)-4-(trifluoro-methyl)pyridazin-3-yl)-2-((tetrahydro-2H-pyran-4-yl)methyl)octahydro-cyclopenta[c]pyrrol-5-amine] | 3 | 0.234 | 
6 | Fc1cc(F)c(-c2cc(C(F)(F)F)c(N[C@H]3C[C@@H]4CN(CC5CCOCC5)C[C@@H]4C3)nn2)cc1F [Example 42, (3aR,5s,6aS)-2-((tetrahydro-2H-pyran-4-yl)methyl)-N-(4-(trifluoromethyl)-6-(2,4,5-trifluorophenyl)pyridazin-3-yl)octahydro-cyclopenta[c]pyrrol-5-amine] | 3 | 0.237 | 
7 | Cn1cc(-c2cc(C(F)(F)F)c(N[C@H]3C[C@@H]4CN(CC5CCOCC5)C[C@@H]4C3)nn2)cn1 [Example 66, (3aR,5s,6aS)-N-(6-(1-methyl-1H-pyrazol-4-yl)-4-(trifluoro-methyl)pyridazin-3-yl)-2-((tetrahydro-2H-pyran-4-yl)methyl)octahydro-cyclopenta[c]pyrrol-5-amine] | 3 | 0.119 | 
8 | [2H]C([2H])([C@H]1CCCCO1)N1C[C@H]2C[C@H](Nc3nnc(-c4cc(C)ccc4C)cc3C(F)(F)F)C[C@H]2C1 [Example 114, (3aR,5s,6aS)-N-(6-(2,5-dimethylphenyl)-4-(trifluoro-methyl)pyridazin-3-yl)-2-(((R)-tetrahydro-2H-pyran-2-yl)methyl-d2)octahydro-cyclopenta[c]pyrrol-5-amine] | 3 | 0.235 | 
9 | Fc1ccc(C2CC2)cc1-c1cc(C(F)(F)F)c(N[C@H]2C[C@@H]3CN(CC4CCOCC4)C[C@@H]3C2)nn1 [Example 94, (3aR,5s,6aS)-N-(6-(5-cyclopropyl-2-fluorophenyl)-4-(trifluoromethyl)pyridazin-3-yl)-2-((tetrahydro-2H-pyran-4-yl)methyl)octahydro-cyclopenta[c]pyrrol-5-amine] | 3 | 1.33 | 
10 | Fc1ccc(Cl)c(-c2cc(C(F)(F)F)c(N[C@H]3C[C@@H]4CN(Cc5ccccn5)C[C@@H]4C3)nn2)c1 [Example 100, (3aR,5s,6aS)-N-(6-(2-chloro-5-fluorophenyl)-4-(trifluoromethyl)pyridazin-3-yl)-2-(pyridin-2-ylmethyl)octahydro-cyclopenta[c]pyrrol-5-amine] | 4 | 0.269 | 

Second part, led by results:

Row | remaining activity at 30 µM (% ACh maximum at 30 μM) [%] | IC50 [µM] | SMILES | Human M4 Emin (% ACh maximum at 30 μM) [%]
11 | 4 | 0.0709 | [2H]C([2H])([2H])OC([2H])([2H])c1ccc(F)cc1-c1cc(C(F)(F)F)c(N[C@H]2C[C@@H]3CN(CC4CCOCC4)C[C@@H]3C2)nn1 [Example 47, (3aR,5s,6aS)-N-(6-(5-fluoro-2-((methoxy-d3)methyl-d2)phenyl)-4-(trifluoromethyl)pyridazin-3-yl)-2-((tetrahydro-2H-pyran-4-yl)methyl)octahydro-cyclopenta[c]pyrrol-5-amine] | 
12 | 3 | 0.0103 | Cc1ccc(F)cc1-c1cc(C(F)(F)F)c(N[C@H]2C[C@@H]3CN(CC4CCCOC4)C[C@@H]3C2)nn1 (single isomer, unassigned) [Example 120] | 
13 | 3 | 0.0476 | FC(F)(F)c1cc(-c2ccc3c(c2)CCO3)nnc1N[C@H]1C[C@@H]2CN(CC3CCOCC3)C[C@@H]2C1 [Example 88, (3aR,5s,6aS)-N-(6-(2,3-dihydrobenzofuran-5-yl)-4-(trifluoromethyl)pyridazin-3-yl)-2-((tetrahydro-2H-pyran-4-yl)methyl)octahydro-cyclopenta[c]pyrrol-5-amine] | 
14 | 3 | 0.0713 | [2H]C([2H])(C1CCOCC1)N1C[C@H]2C[C@H](Nc3nnc(-c4ccc5c(cnn5C)c4)cc3C(F)(F)F)C[C@H]2C1 [Example 144, (3aR,5s,6aS)-N-(6-(1-methyl-1H-indazol-5-yl)-4-(trifluoromethyl)pyridazin-3-yl)-2-((tetrahydro-2H-pyran-4-yl)methyl)octahydro-cyclopenta[c]pyrrol-5-amine] | 
15 | 3 | 0.0298 | [2H]C([2H])(C1CCOCC1)N1C[C@H]2C[C@H](Nc3nnc(-c4ccc5nn(C)cc5c4)cc3C(F)(F)F)C[C@H]2C1 [Example 18, (3aR,5s,6aS)-N-(6-(2-methyl-2H-indazol-5-yl)-4-(trifluoro-methyl)pyridazin-3-yl)-2-((tetrahydro-2H-pyran-4-yl)methyl-d2)octahydro-cyclopenta[c]pyrrol-5-amine] | 
16 | 3 | 0.038 | COc1ccc(-c2cc(C(F)(F)F)c(N[C@H]3C[C@@H]4CN(CC5CCOCC5)C[C@@H]4C3)nn2)c(C)c1 [Example 77, (3aR,5s,6aS)-N-(6-(4-methoxy-2-methylphenyl)-4-(trifluoromethyl)pyridazin-3-yl)-2-((tetrahydro-2H-pyran-4-yl)methyl)octahydro-cyclopenta[c]pyrrol-5-amine] | 
17 | 6 | 0.0149 | Cc1ccc(F)cc1-c1cc(C#N)c(N[C@H]2C[C@@H]3CN(C[C@H]4CCOC4)C[C@@H]3C2)nn1 [Example 152, 6-(5-fluoro-2-methylphenyl)-3-(((3aR,5s,6aS)-2-(((R)-tetrahydrofuran-3-yl)methyl)octahydro-cyclopenta[c]pyrrol-5-yl)amino)pyridazine-4-carbonitrile] | 
18 | 3 | 0.0727 | [2H]C([2H])(C1CCOCC1)N1C[C@H]2C[C@H](Nc3nnc(-c4cc(C)ccc4C)cc3C(F)(F)F)C[C@H]2C1 [Example 98, (3aR,5s,6aS)-N-(6-(2,5-dimethylphenyl)-4-(trifluoromethyl)pyridazin-3-yl)-2-((tetrahydro-2H-pyran-4-yl)methyl-d2)octahydro-cyclopenta[c]pyrrol-5-amine] | 
19 | 2 | 0.0072 | F[C@H]1CCN(c2cc(C(F)(F)F)c(N[C@H]3C[C@@H]4CN(CC5CCOCC5)C[C@@H]4C3)nn2)C1 [Example 139, (3aR,5s,6aS)-N-(6-((S)-3-fluoropyrrolidin-1-yl)-4-(trifluoromethyl)pyridazin-3-yl)-2-((tetrahydro-2H-pyran-4-yl)methyl)octahydro-cyclopenta[c]pyrrol-5-amine] | 
20 | 3 | 0.007 | Cc1ccc(F)cc1-c1cc(C(F)(F)F)c(N[C@H]2C[C@@H]3CN(C[C@@H]4CC5CCC4O5)C[C@@H]3C2)nn1 (stereo partly drawn) [Example 24, (3aR,5s,6aS)-2-(((2S)-7-oxabicyclo[2.2.1]heptan-2-yl)methyl)-N-(6-(5-fluoro-2-methylphenyl)-4-(trifluoromethyl)pyridazin-3-yl)octahydro-cyclopenta[c]pyrrol-5-amine] | 
21 | 2 | 0.0206 | C[C@@H]1CCCN(c2cc(C(F)(F)F)c(N[C@H]3C[C@@H]4CN(CC5CCOCC5)C[C@@H]4C3)nn2)C1 [Example 136, (3aR,5s,6aS)-N-(6-((R)-3-methylpiperidin-1-yl)-4-(trifluoromethyl)pyridazin-3-yl)-2-((tetrahydro-2H-pyran-4-yl)methyl)octahydro-cyclopenta[c]pyrrol-5-amine] | 

— patent US20230183219A1, “CONDENSED SUBSTITUTED HYDROPYRROLES AS ANTAGONISTS OF THE MUSCARINIC ACETYLCHOLINE RECEPTOR M4” (Vanderbilt University, priority 2020, published 2023)
